# Experimental data: PubChem BioAssay (NCI)
#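 48-hour exposure; five concentrations; linearly interpolated endpoints. At the GI50, growth is halved. The concentration for full growth arrest is given as TGI.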
# System: HL-60(TB) leukemia
# Experiment: NCI-60 cell line screen, 48 h
SMILES,TGI [µM],GI50 [µM]
Nc1n[nH]c(=O)c2c1c(I)cn2C1OC(CO)C(O)C1O (configuration not stated),0.348,–
O=C(Nc1ccc([N+](=O)[O-])cc1[N+](=O)[O-])C(=O)C(C(=O)c1ccc2ccccc2c1)C1OC(=O)c2ccccc21 (configuration not stated),35,–
COc1cc(/C=C/C(=O)Oc2ccc(NC(C)=O)cc2)ccc1C(=O)O/C=C/c1ccccc1,> 100,–
COc1ccc2c(c1)CCCN2CCCCCCCCCCN(CCC(C)C)CCC(C)C,9.61,–
O=P1(c2ccccc2)Nc2ccccc2SSc2ccccc2N1,39.6,–
COc1ccc(-c2nc3ncccn3c2-c2ccc(SC)cc2)cc1,6.61,–
C[C@H]1C(=O)O[C@@H]2CCN3CC=C(COC(=O)[C@](C)(O)[C@@]1(C)O)[C@H]23,> 100,–
N=C1C(=N)c2ccccc2-c2ccccc21.N=C1C(=N)c2ccccc2-c2ccccc21.N=C1C(=N)c2ccccc2-c2ccccc21.[Cl-].[Ru+2],3.76,–
CCOC(=O)c1c2c(n(Cc3ccccc3)c1C)C(=O)C(=O)c1ccccc1-2,0.0983,–
CN(C)C(=O)/C=C/c1c[nH]c(=O)[nH]c1=O,> 316,–
CN(C)CCCn1cnc2cc(Cl)c(Cl)cc21,> 100,–
NCCCn1c2c(c3ccc([N+](=O)[O-])cc3c1=O)C(=O)c1ccccc1-2,> 19.3,0.031
O=C1NI(C#Cc2ccccc2)c2ccccc21,> 100,–
CCc1nc(N)nc(N)c1-c1ccc([N+](C)(C)C)cc1,> 100,–
Cc1cc2c(cc1C(=O)c1ccc(N)cc1)OCO2,> 100,–
NCCc1cc(O)c(O)cc1O,65.6,12.8
COc1ccc(C2=C3SC=c4ccccc4=C3ON=C2c2ccccc2)cc1,> 100,–
CC(=O)NNc1nc(-c2ccc([N+](=O)[O-])cc2)c(C#N)c(=O)n1C,82.6,–
CCCOC(=O)CNC(=O)OC(C)(C)C,> 100,–
CN(C)CCNC(=O)c1cccc2ccc(-c3ccc(F)cc3)nc12,7.49,–

# System: MOLT-4 leukemia
# Experiment: NCI-60 cell line screen, 48 h
SMILES,TGI [µM],GI50 [µM]
Nc1n[nH]c(=O)c2c1c(I)cn2C1OC(CO)C(O)C1O (configuration not stated),2.29,–
O=C(Nc1ccc([N+](=O)[O-])cc1[N+](=O)[O-])C(=O)C(C(=O)c1ccc2ccccc2c1)C1OC(=O)c2ccccc21 (configuration not stated),62.2,–
COc1cc(/C=C/C(=O)Oc2ccc(NC(C)=O)cc2)ccc1C(=O)O/C=C/c1ccccc1,> 100,–
COc1ccc2c(c1)CCCN2CCCCCCCCCCN(CCC(C)C)CCC(C)C,22.6,–
O=P1(c2ccccc2)Nc2ccccc2SSc2ccccc2N1,49.9,–
COc1ccc(-c2nc3ncccn3c2-c2ccc(SC)cc2)cc1,> 100,–
C[C@H]1C(=O)O[C@@H]2CCN3CC=C(COC(=O)[C@](C)(O)[C@@]1(C)O)[C@H]23,> 100,–
N=C1C(=N)c2ccccc2-c2ccccc21.N=C1C(=N)c2ccccc2-c2ccccc21.N=C1C(=N)c2ccccc2-c2ccccc21.[Cl-].[Ru+2],5.46,–
CCOC(=O)c1c2c(n(Cc3ccccc3)c1C)C(=O)C(=O)c1ccccc1-2,1.8,–
CN(C)C(=O)/C=C/c1c[nH]c(=O)[nH]c1=O,> 500,–
NCCCn1c2c(c3ccc([N+](=O)[O-])cc3c1=O)C(=O)c1ccccc1-2,> 50,0.114
O=C1NI(C#Cc2ccccc2)c2ccccc21,> 100,–
CCc1nc(N)nc(N)c1-c1ccc([N+](C)(C)C)cc1,> 100,–
Cc1cc2c(cc1C(=O)c1ccc(N)cc1)OCO2,> 100,–
NCCc1cc(O)c(O)cc1O,70.7,–
COc1ccc(C2=C3SC=c4ccccc4=C3ON=C2c2ccccc2)cc1,> 100,–
CC(=O)NNc1nc(-c2ccc([N+](=O)[O-])cc2)c(C#N)c(=O)n1C,> 100,–
CN(C)CCNC(=O)c1cccc2ccc(-c3ccc(F)cc3)nc12,7.03,–

# System: NCI-H460 lung
# Experiment: NCI-60 cell line screen, 48 h
SMILES,TGI [µM],GI50 [µM]
Nc1n[nH]c(=O)c2c1c(I)cn2C1OC(CO)C(O)C1O (configuration not stated),14.1,–
O=C(Nc1ccc([N+](=O)[O-])cc1[N+](=O)[O-])C(=O)C(C(=O)c1ccc2ccccc2c1)C1OC(=O)c2ccccc21 (configuration not stated),28.9,–
COc1cc(/C=C/C(=O)Oc2ccc(NC(C)=O)cc2)ccc1C(=O)O/C=C/c1ccccc1,> 100,–
COc1ccc2c(c1)CCCN2CCCCCCCCCCN(CCC(C)C)CCC(C)C,24.3,–
O=P1(c2ccccc2)Nc2ccccc2SSc2ccccc2N1,33.8,–
COc1ccc(-c2nc3ncccn3c2-c2ccc(SC)cc2)cc1,7.87,–
N=C1C(=N)c2ccccc2-c2ccccc21.N=C1C(=N)c2ccccc2-c2ccccc21.N=C1C(=N)c2ccccc2-c2ccccc21.[Cl-].[Ru+2],6.29,–
CCOC(=O)c1c2c(n(Cc3ccccc3)c1C)C(=O)C(=O)c1ccccc1-2,1.5,–
CN(C)C(=O)/C=C/c1c[nH]c(=O)[nH]c1=O,> 500,–
CN(C)CCCn1cnc2cc(Cl)c(Cl)cc21,> 100,–
NCCCn1c2c(c3ccc([N+](=O)[O-])cc3c1=O)C(=O)c1ccccc1-2,> 50,0.00887
O=C1NI(C#Cc2ccccc2)c2ccccc21,> 100,–
CCc1nc(N)nc(N)c1-c1ccc([N+](C)(C)C)cc1,> 100,–
Cc1cc2c(cc1C(=O)c1ccc(N)cc1)OCO2,> 100,–
NCCc1cc(O)c(O)cc1O,80.4,–
COc1ccc(C2=C3SC=c4ccccc4=C3ON=C2c2ccccc2)cc1,> 100,–
CC(=O)NNc1nc(-c2ccc([N+](=O)[O-])cc2)c(C#N)c(=O)n1C,> 100,–
COc1cc(C2CC(c3cccc(Nc4ccncc4)c3)=NN2c2ccc(Cl)cc2)cc(OC)c1OC (configuration not stated),3.13,1.69
CCCOC(=O)CNC(=O)OC(C)(C)C,> 100,–
CN(C)CCNC(=O)c1cccc2ccc(-c3ccc(F)cc3)nc12,10.5,–

# System: OVCAR-8 ovarian
# Experiment: NCI-60 cell line screen, 48 h
SMILES,TGI [µM],GI50 [µM]
Nc1n[nH]c(=O)c2c1c(I)cn2C1OC(CO)C(O)C1O (configuration not stated),1.44,–
O=C(Nc1ccc([N+](=O)[O-])cc1[N+](=O)[O-])C(=O)C(C(=O)c1ccc2ccccc2c1)C1OC(=O)c2ccccc21 (configuration not stated),21.6,–
COc1cc(/C=C/C(=O)Oc2ccc(NC(C)=O)cc2)ccc1C(=O)O/C=C/c1ccccc1,> 100,–
O=P1(c2ccccc2)Nc2ccccc2SSc2ccccc2N1,37.2,–
COc1ccc(-c2nc3ncccn3c2-c2ccc(SC)cc2)cc1,> 100,–
C[C@H]1C(=O)O[C@@H]2CCN3CC=C(COC(=O)[C@](C)(O)[C@@]1(C)O)[C@H]23,> 100,–
N=C1C(=N)c2ccccc2-c2ccccc21.N=C1C(=N)c2ccccc2-c2ccccc21.N=C1C(=N)c2ccccc2-c2ccccc21.[Cl-].[Ru+2],3.14,–
CCOC(=O)c1c2c(n(Cc3ccccc3)c1C)C(=O)C(=O)c1ccccc1-2,1.07,–
CN(C)C(=O)/C=C/c1c[nH]c(=O)[nH]c1=O,> 500,–
CN(C)CCCn1cnc2cc(Cl)c(Cl)cc21,> 100,–
NCCCn1c2c(c3ccc([N+](=O)[O-])cc3c1=O)C(=O)c1ccccc1-2,0.77,0.114
O=C1NI(C#Cc2ccccc2)c2ccccc21,> 100,–
CCc1nc(N)nc(N)c1-c1ccc([N+](C)(C)C)cc1,> 100,–
Cc1cc2c(cc1C(=O)c1ccc(N)cc1)OCO2,> 100,–
NCCc1cc(O)c(O)cc1O,> 53.6,–
COc1ccc(C2=C3SC=c4ccccc4=C3ON=C2c2ccccc2)cc1,> 100,–
CC(=O)NNc1nc(-c2ccc([N+](=O)[O-])cc2)c(C#N)c(=O)n1C,89.3,–
CCCOC(=O)CNC(=O)OC(C)(C)C,> 100,–
CN(C)CCNC(=O)c1cccc2ccc(-c3ccc(F)cc3)nc12,15.8,–

# System: COLO 205 colon
# Experiment: NCI-60 cell line screen, 48 h
SMILES,TGI [µM],GI50 [µM]
Nc1n[nH]c(=O)c2c1c(I)cn2C1OC(CO)C(O)C1O (configuration not stated),7.81,–
O=C(Nc1ccc([N+](=O)[O-])cc1[N+](=O)[O-])C(=O)C(C(=O)c1ccc2ccccc2c1)C1OC(=O)c2ccccc21 (configuration not stated),35,–
COc1cc(/C=C/C(=O)Oc2ccc(NC(C)=O)cc2)ccc1C(=O)O/C=C/c1ccccc1,> 100,–
COc1ccc2c(c1)CCCN2CCCCCCCCCCN(CCC(C)C)CCC(C)C,26.6,–
O=P1(c2ccccc2)Nc2ccccc2SSc2ccccc2N1,42.4,–
COc1ccc(-c2nc3ncccn3c2-c2ccc(SC)cc2)cc1,3.31,–
C[C@H]1C(=O)O[C@@H]2CCN3CC=C(COC(=O)[C@](C)(O)[C@@]1(C)O)[C@H]23,> 100,–
N=C1C(=N)c2ccccc2-c2ccccc21.N=C1C(=N)c2ccccc2-c2ccccc21.N=C1C(=N)c2ccccc2-c2ccccc21.[Cl-].[Ru+2],6.87,–
CCOC(=O)c1c2c(n(Cc3ccccc3)c1C)C(=O)C(=O)c1ccccc1-2,1.69,–
CN(C)C(=O)/C=C/c1c[nH]c(=O)[nH]c1=O,> 500,–
CN(C)CCCn1cnc2cc(Cl)c(Cl)cc21,> 100,–
NCCCn1c2c(c3ccc([N+](=O)[O-])cc3c1=O)C(=O)c1ccccc1-2,3.82,0.33
O=C1NI(C#Cc2ccccc2)c2ccccc21,> 100,–
CCc1nc(N)nc(N)c1-c1ccc([N+](C)(C)C)cc1,> 100,–
Cc1cc2c(cc1C(=O)c1ccc(N)cc1)OCO2,41.5,–
NCCc1cc(O)c(O)cc1O,> 72.9,–
COc1ccc(C2=C3SC=c4ccccc4=C3ON=C2c2ccccc2)cc1,> 100,–
CC(=O)NNc1nc(-c2ccc([N+](=O)[O-])cc2)c(C#N)c(=O)n1C,> 100,–
COc1cc(C2CC(c3cccc(Nc4ccncc4)c3)=NN2c2ccc(Cl)cc2)cc(OC)c1OC (configuration not stated),4.79,2.12
CCCOC(=O)CNC(=O)OC(C)(C)C,> 100,–
CN(C)CCNC(=O)c1cccc2ccc(-c3ccc(F)cc3)nc12,10.9,–

# System: HT29 colon
# Experiment: NCI-60 cell line screen, 48 h
row,SMILES,TGI [µM]
1,Nc1n[nH]c(=O)c2c1c(I)cn2C1OC(CO)C(O)C1O (configuration not stated),67.8
